Test results taken from US8470963B2, “Multifunctional compounds for pharmaceutical purposes” (Sku Asset Management GmbH, priority 2006, dated 2013).
pKd: −log10 of the molar value.

Experiments:
Her-2 (human ErbB-2) = Her-2 (human ErbB-2) (Homo sapiens, UniProt P04626); conditions: target Her-2 (human ErbB-2); Karasseva et al, 2002; read-out: Affinity (kD); cited from earlier work
FGF receptor = conditions: target FGF receptor; if multivalent; Maruta et al, 2002; read-out: Affinity (kD); cited from earlier work
hepatoma cells = assay: Hepatoma solid tumor model in strain 13 guinea pigs: tumor weight and macrophage infiltration; type: in vivo, guinea pig; conditions: compared to control Group 1 (PBS); for numbers of esterase-positive cells in tumors (macrophage infiltration): 1 mg per animal ip on day 5, sacrifice on day 15, non-specific esterase stain; for mean tumor weight: 1 mg per animal ip on day 5, tumors excised and weighed on day 15
Protocol: Hepatoma cells are propagated by ip (intraperitoneal) passage in weanling strain 13 male guinea pigs (NIH). Single-cell suspensions are prepared by enzymatic digestion as described. Strain 13 male guinea pigs are injected ip with a suspension of approx. 2*10^6 hepatoma cells to produce solid tumors (day 1). Animals are grouped into 4 groups (six animals each) and are given ip injections on day 5: Phosphate-buffered saline (PBS) (Group 1; control); 1 mg peptide NH2-AWYPLPP-COOH per animal (Group 2; binder only); 1 mg peptide fMLP-COOH per animal (Group 3; effector only); 1 mg compound fMLPK-(NH2-AWYPLPP)-GGGK-(NH2-AWYPLPP)-1-COOH per animal (Group 4). Animals are sacrificed on day 15 and tumors are excised and weighed. In addition macrophage infiltration of tumors is evaluated. Therefore, tumors are fixed in phosphate-buffered formalin and embedded in paraffin blocks. Sections (5 μm) are cut and stained for non-specific esterase activity. Esterase-positive cells are quantified with an image analyser (Optomax, Inc.).

[1] = test system: human neuroblastoma cells WAC 2; breast cancer cells MDA-MB-435; conditions: WAC 2 neuroblastoma cells; MDA-MB-435 breast cancer cells; Askoxylakis et al; read-out: Affinity (kD); cited from earlier work
[2] = molecular target: Glucose-regulated protein 78 (GRP78) (Homo sapiens, UniProt P11021); conditions: target GRP78; Arap et al, 2004; read-out: Affinity (kD); cited from earlier work
Sequence of Glucose-regulated protein 78 (GRP78) (P11021 19-654, species assumed): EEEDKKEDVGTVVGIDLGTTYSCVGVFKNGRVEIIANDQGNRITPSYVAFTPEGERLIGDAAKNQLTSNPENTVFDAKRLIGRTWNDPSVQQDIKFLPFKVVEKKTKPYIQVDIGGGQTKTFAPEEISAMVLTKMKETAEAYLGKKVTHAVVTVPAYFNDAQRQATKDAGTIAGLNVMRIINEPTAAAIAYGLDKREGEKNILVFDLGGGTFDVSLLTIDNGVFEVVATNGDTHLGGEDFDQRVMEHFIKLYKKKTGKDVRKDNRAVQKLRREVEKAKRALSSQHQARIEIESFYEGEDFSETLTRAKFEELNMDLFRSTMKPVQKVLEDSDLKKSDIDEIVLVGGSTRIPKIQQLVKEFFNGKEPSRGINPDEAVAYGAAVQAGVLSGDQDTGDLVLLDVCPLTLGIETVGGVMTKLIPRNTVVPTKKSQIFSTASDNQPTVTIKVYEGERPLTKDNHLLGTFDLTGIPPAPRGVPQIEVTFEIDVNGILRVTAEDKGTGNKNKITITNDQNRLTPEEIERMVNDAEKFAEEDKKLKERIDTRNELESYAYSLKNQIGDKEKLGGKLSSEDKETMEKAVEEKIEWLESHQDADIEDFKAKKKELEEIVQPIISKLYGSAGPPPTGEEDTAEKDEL

EGFRvIII = EGFRvIII (Homo sapiens, UniProt P00533, DELINS30-297G); conditions: target EGFRvIII; Campa et al 2002; read-out: Affinity (kD); cited from earlier work
EGFR = EGFR (Homo sapiens, UniProt P00533); conditions: target EGFR; Li et al 2005; read-out: Affinity (kD); cited from earlier work

For KCCYSL, the pKd (Her-2 (human ErbB-2)) is given as 4.52.
In the case of MQLPLAT, the pKd (FGF receptor) is given as 9.60.
In the case of “NH2-AWYPLPP-COOH (H-AWYPLPP-OH) [binder]”, the “numbers of esterase-positive cells in tumors (macrophage infiltration)” value (“numbers of esterase-positive cells” for short) (hepatoma cells) was “comparable to Group 1” and the mean tumor weight (hepatoma cells) was “no or only marginal effect”.
In the case of VPWMEPAYQRFL, the pKd [1] is listed as 6.22.
In the case of WDLAWMFRLPVG, the pKd [2] is given as 7.30 to 8.30.
For WIFPWIQL, the pKd [2] is given as 7.30 to 8.30.
For YHWYGYTPQNVI, the pKd (EGFRvIII) is listed as 7.52 and the pKd (EGFR) is listed as 7.66.
For fMLP-COOH [effector], the “numbers of esterase-positive cells” value (hepatoma cells) was “slightly increased” and the mean tumor weight (hepatoma cells) was “no or only marginal effect”.
In the case of “fMLPK-(NH2-AWYPLPP)-GGGK-(NH2-AWYPLPP)-I-COOH [compound]”, the “numbers of esterase-positive cells” value (hepatoma cells) was “significantly increased” and the mean tumor weight (hepatoma cells) was “significantly decreased”.
